Here are results for seven compounds from ChEMBL document CHEMBL5728678, “Heteroaryl compounds as BTK inhibitors and uses thereof” (2021).

The target in one assay is Tyrosine-protein kinase BTK (Homo sapiens, UniProt Q06187, C481S). As to the kind of experiment: Microfluidic Off-Chip Mobility Shift Assay Protocol for Potency Assessment Against BTK C481S Enzyme: The protocol below describes a microfluidic, off-chip mobility shift kinase assay to measure inherent potency of compounds against BTK C481S enzyme. The mechanics of the assay platform are described by the vendor (PerkinElmer, Hopkinton, Mass.) on their website at the following URL: http://caliperls.com.Briefly, 2.5× stocks of His-TEV-hsBTK(328-659)(C481S) from the Merck Serono Protein Purification Laboratory in Darmstadt, Germany (PCS, Q27/234), 1.6×ATP and appropriate KinKDR peptide substrate (FITC-AHA-[…]-NH2; Tufts University Core Facility custom synthesis) were prepared in kinase reaction buffer consisting of 25 mM MgCl2, 0.015% Brij-35 (30%), 100 mM HEPES, pH 7.5, and 10 mM DTT.5 uL of enzyme buffer and 7.5 uL of ATP/KinKDR peptide substrate mix were added to Matrix (#4315) 384-well, sterile, flat-bottom polypropylene plates (Thermo Fisher Scientific, Hudson, N.H.) with 125 nL of serially diluted compounds prepared in 100% DMSO, and incubated for 90 min. at 25° C. Following the incubation period, reactions were terminated by adding 65 uL quench buffer consisting of 100 mM HEPES, pH 7.5, 0.015% Brij-35 (30%), 0.277% Coating Reagent #3 (PerkinElmer, Mountain View, Calif.), 5% DMSO. Terminated reactions were monitored at −2 PSI, −3000 V/−700 Volts in a LabChip 3000 plate reader from Caliper Life Sciences, a PerkinElmer Company (Hopkinton, Mass.), and the activity was quantified by laser-induced fluorescence measuring the charge/mass difference between substrate and product resulting from peptide phosphorylation. IC50 and efficacy were determined by plotting log [Inhibitor] vs. % Activity in GeneData Screener (Basel, Switzerland).
Tyrosine-protein kinase BTK (Homo sapiens, UniProt Q06187, C481S), sequence (Q06187 2-659 C481S limits assumed): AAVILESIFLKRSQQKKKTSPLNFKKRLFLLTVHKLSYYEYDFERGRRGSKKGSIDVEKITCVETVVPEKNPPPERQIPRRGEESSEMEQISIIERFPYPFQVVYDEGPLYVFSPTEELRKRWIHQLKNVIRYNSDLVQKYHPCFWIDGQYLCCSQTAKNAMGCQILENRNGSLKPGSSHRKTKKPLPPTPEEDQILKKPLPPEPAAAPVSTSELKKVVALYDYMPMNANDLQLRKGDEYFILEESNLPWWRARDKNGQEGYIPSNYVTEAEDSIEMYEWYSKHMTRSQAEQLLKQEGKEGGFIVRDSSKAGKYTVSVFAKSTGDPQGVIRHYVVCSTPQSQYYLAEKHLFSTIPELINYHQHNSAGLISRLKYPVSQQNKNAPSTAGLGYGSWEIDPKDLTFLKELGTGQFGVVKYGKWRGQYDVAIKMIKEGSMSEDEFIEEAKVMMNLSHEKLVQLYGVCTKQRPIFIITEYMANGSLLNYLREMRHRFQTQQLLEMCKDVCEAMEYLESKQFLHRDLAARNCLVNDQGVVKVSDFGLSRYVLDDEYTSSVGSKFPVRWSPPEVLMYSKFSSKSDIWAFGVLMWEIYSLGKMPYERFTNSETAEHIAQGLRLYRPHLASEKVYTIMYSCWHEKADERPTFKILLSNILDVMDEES
The IC50 is the concentration that inhibits the measured activity by half. Consider `CC(C)(C)c1nc(C(=O)NCc2ccc(-c3ccnc4[nH]c(-c5cnn(C6CCOCC6)c5)nc34)cc2F)no1`, for which the IC50 is less than 100 nM.

With `Cn1cc(-c2nc3c(-c4cccc(CNC(=O)c5noc(C(C)(C)C)n5)c4)ccnc3[nH]2)cn1`, the concentration for half-maximal inhibition (IC50) is less than 100 nM.

For `CC(C)(C)c1nc(C(=O)NCc2ccc(-c3ccnc4[nH]c(-c5cnn(C6COC6)c5)nc34)cc2F)no1`, the IC50 is less than 100 nM.

The next assay deals with Tyrosine-protein kinase BTK (Homo sapiens, UniProt Q06187). Description: Microfluidic Off-Chip Mobility Shift Assay Protocol for Potency Assessment Against BTK Enzyme: Briefly, 2.5× stocks of full-length human BTK (08-080) from CarnaBio USA, Inc., Natick, Mass., 1.6×ATP and appropriate kinKDR peptide substrate (FITC-AHA-[…]-NH2; developed in-house) were prepared in kinase reaction buffer consisting of 25 mM MgCl2, 0.015% Brij-35 (30%), 100 mM HEPES, pH 7.5, and 10 mM DTT. 5 uL of enzyme buffer and 7.5 uL of ATP/kinKDR peptide substrate mix were added to Matrix (#115304) 384-well, sterile, polypropylene plates (Thermo Fisher Scientific, Hudson, N.H.) with 125 nL of serially diluted compounds prepared in 100% DMSO, and incubated for 90 min. at 27° C. Following the incubation period, reactions were stopped by adding 60 uL stop buffer consisting of 100 mM HEPES, pH 7.5, 0.015% Brij-35 (30%), 0.277% Coating Reagent #3 (Caliper Life Sciences, Mountain View, Calif.), 5% DMSO. Stopped reactions were monitored at −2 PSI, −3000 V/−700 V in a LabChip 3000 plate reader from Caliper Life Sciences, a PerkinElmer Company (Hopkinton, Mass.), and the activity was measured by off-chip mobility shift assay measuring the charge/mass difference between substrate and product resulting from peptide phosphorilation. IC50 and efficacy were determined by plotting log [Inhibitor] vs. % Activity in GeneData Screener (Basel. Switzerland).
Tyrosine-protein kinase BTK (Homo sapiens, UniProt Q06187), sequence (Q06187 whole entry): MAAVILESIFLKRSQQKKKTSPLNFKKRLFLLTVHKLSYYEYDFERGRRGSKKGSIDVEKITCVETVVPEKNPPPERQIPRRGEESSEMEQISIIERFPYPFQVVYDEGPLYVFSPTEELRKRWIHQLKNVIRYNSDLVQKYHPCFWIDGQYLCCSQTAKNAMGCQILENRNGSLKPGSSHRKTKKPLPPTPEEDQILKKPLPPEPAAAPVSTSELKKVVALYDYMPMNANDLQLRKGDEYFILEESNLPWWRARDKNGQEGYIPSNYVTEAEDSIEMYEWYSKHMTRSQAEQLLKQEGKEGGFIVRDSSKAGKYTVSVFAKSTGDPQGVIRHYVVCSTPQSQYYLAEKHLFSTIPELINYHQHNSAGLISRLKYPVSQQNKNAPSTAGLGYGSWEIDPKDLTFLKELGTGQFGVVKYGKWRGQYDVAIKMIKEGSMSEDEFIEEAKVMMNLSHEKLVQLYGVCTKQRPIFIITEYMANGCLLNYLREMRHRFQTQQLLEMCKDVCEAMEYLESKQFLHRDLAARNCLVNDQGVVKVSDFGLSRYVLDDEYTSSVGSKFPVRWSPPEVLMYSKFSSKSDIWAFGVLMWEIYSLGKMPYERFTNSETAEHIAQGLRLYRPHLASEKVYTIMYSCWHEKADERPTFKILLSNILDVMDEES
On to `CCn1cc(-c2nc3c(-c4ccc(CNC(=O)c5cc(C(C)(C)C)on5)c(F)c4)ccnc3[nH]2)cn1`, for which the IC50 was less than 100 nM.

Regarding `Cn1cc(-c2nc3c(-c4ccc(CNc5nccc6c5OCCN6C(=O)OC(C)(C)C)c(F)c4)ccnc3[nH]2)cn1`, the concentration for half-maximal inhibition (IC50) is more than 5000 nM.

As for `CC(C)(C)c1noc(C(=O)NCc2ccc(-c3ccnc4[nH]c(C5=CCNCC5)nc34)cc2F)n1`, the 50% inhibitory concentration (IC50) is less than 100 nM.

In the case of `CC(C)(C)c1noc(C(=O)NCc2ccc(-c3ccnc4[nH]c([C@@H]5C[C@H]5c5ccccc5)nc34)cc2F)n1`, the IC50 is more than 5000 nM.
